Data: patent US12336982B2 (RODEO THERAPEUTICS CORPORATION, priority 2018, dated 2025)

Target: T1, recombinant 15-PGDH (Homo sapiens, UniProt P15428)
T1 sequence (P15428 1-266): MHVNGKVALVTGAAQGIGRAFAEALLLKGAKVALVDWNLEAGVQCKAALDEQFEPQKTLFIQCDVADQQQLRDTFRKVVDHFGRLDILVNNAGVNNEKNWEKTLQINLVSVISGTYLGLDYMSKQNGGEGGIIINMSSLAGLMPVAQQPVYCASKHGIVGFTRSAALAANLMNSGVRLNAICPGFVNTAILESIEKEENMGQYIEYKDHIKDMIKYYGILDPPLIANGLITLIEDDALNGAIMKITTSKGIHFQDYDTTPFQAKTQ
Format: biochemical
Settings: recombinant human 15-PGDH, in vitro; read-out: PDGH Assay-IC50
Excerpt: The Recombinant 15-PGDH is human unless otherwise specified.

Row | SMILES | IC50 [nM]
1 | COCCC[S@@+]([O-])c1sc2nc(-c3cnc(N)nc3)cc(C(F)(F)F)c2c1N [Example 203] | < 2.5
2 | COCCC[S@@+]([O-])c1sc2nc(-c3cccnc3)cc(C(F)(F)F)c2c1N [Example 78] | < 2.5
3 | COCCC[S+]([O-])c1sc2nc(-c3cnc4nn(C)cc4c3)cc(-c3ccccc3)c2c1N (stereo not shown) [Example 123] | < 2.5
4 | CN(CCO)c1ncc(-c2cc(-c3ccccc3)c3c(N)c([S@@+]([O-])C4CCC4)sc3n2)cn1 [Example 180] | ≥ 10
5 | Nc1c([S+]([O-])C2CCC2)sc2nc(-c3ccc(NCCO)nc3)cc(-c3ccccn3)c12 (stereo not shown) [Example 83] | < 2.5
6 | COCCC[S+]([O-])c1sc2nc(-c3cnc4c(cnn4C)c3)cc(-c3ccccc3)c2c1N (stereo not shown) [Example 116] | 2.5 to 10
7 | Nc1c([S+]([O-])C2CCC2)sc2nc(-c3cncnc3)cc(-c3ncccc3F)c12 (stereo not shown) [Example 121] | < 2.5
8 | CNC(=O)c1ncc(-c2cc(-c3ccccc3)c3c(N)c([S+]([O-])CCCOC)sc3n2)cn1 (stereo not shown) [Example 165] | 2.5 to 10
9 | Nc1c([S@+]([O-])C2CCC2)sc2nc(-c3cnc(NCCO)nc3)cc(-c3ccccn3)c12 [Example 94] | < 2.5
10 | COCC[S+]([O-])c1sc2nc(-c3cnc4c(cnn4C)c3)cc(-c3ccccc3)c2c1N (stereo not shown) [Example 120] | < 2.5
11 | COCCC[S+]([O-])c1sc2nc(-c3cnc4nn(C)cc4c3)cc(-c3cccnc3)c2c1N (stereo not shown) [Example 75] | < 2.5
12 | COCCC[S+]([O-])c1sc2nc(-c3cnc(O)nc3)cc(-c3ccccc3)c2c1N (stereo not shown) [Example 166] | 2.5 to 10
13 | NCCOCCNc1ncc(-c2cc(-c3ccccc3)c3c(N)c([S+]([O-])C4CCC4)sc3n2)cn1 (stereo not shown) [Example 156] | < 2.5
14 | Cn1ccc(-c2cc(-c3cccnc3)c3c(N)c([S+]([O-])C4CCC4)sc3n2)cc1=O (stereo not shown) [Example 90] | 2.5 to 10
15 | COCC[S+]([O-])c1sc2nc(-c3cncnc3)cc(-c3ccnn3C)c2c1N (stereo not shown) [Example 175] | 2.5 to 10
16 | COCCC[S@+]([O-])c1sc2nc(-c3cncnc3)cc(-c3ncccn3)c2c1N [Example 112] | ≥ 10

Row | SMILES | IC50 [nM]
17 | Nc1ncc(-c2cc(-c3ccc(F)cn3)c3c(N)c([S+]([O-])C4CCC4)sc3n2)cn1 (stereo not shown) [Example 66] | < 2.5
18 | Nc1c([S@+]([O-])C2CCC2)sc2nc(-c3cnc(NCCO)nc3)cc(-c3ccccc3)c12 [Example 51] | < 2.5
19 | COCC[S+]([O-])c1sc2nc(-c3ccc(=O)[nH]c3)cc(-c3ccccc3)c2c1N (stereo not shown) [Example 167] | < 2.5
20 | Nc1c([S+]([O-])C2CCC2)sc2nc(-c3cnc(NCC(CO)CO)nc3)cc(-c3ccccc3)c12 (stereo not shown) [Example 193] | < 2.5
21 | COC(=O)Nc1ncc(-c2cc(-c3cccnc3)c3c(N)c([S+]([O-])C4CCC4)sc3n2)cn1 (stereo not shown) [Example 117] | 2.5 to 10
22 | Nc1c([S+]([O-])C2CCC2)sc2nc(-c3cnc(NCCO)nc3)cc(C(F)(F)F)c12 (stereo not shown) [Example 138] | 2.5 to 10
23 | Cn1nccc1-c1cc(-c2cncnc2)nc2sc([S+]([O-])C3CCC3)c(N)c12 (stereo not shown) [Example 195] | < 2.5
24 | CN1CCN(c2ncc(-c3cc(-c4ccccc4)c4c(N)c([S@+]([O-])C5CCC5)sc4n3)cn2)CC1 [Example 48] | < 2.5
25 | CNC(=O)c1ncc(-c2cc(-c3ccccc3)c3c(N)c([S+]([O-])C4CCC4)sc3n2)cn1 (stereo not shown) [Example 53] | < 2.5
26 | CN(CCO)c1ncc(-c2cc(C(F)(F)F)c3c(N)c([S+]([O-])C4CCC4)sc3n2)cn1 (stereo not shown) [Example 188] | 2.5 to 10
27 | Nc1c([S+]([O-])C2CCC2)sc2nc(-c3cncnc3)cc(-c3ccc(C4COC4)nc3)c12 (stereo not shown) [Example 147] | < 2.5
28 | Nc1c([S+]([O-])C2CCC2)sc2nc(-c3cnc(N(CCO)CCO)nc3)cc(-c3ccccc3)c12 (stereo not shown) [Example 197] | < 2.5
29 | CN(C)CCOc1ncc(-c2cc(-c3ccccc3)c3c(N)c([S+]([O-])C4CCC4)sc3n2)cn1 (stereo not shown) [Example 47] | 2.5 to 10
30 | Nc1c([S+]([O-])C2CCC2)sc2nc(-c3cnc(N4CCOCC4)nc3)cc(-c3ccccc3)c12 (stereo not shown) [Example 194] | 2.5 to 10
31 | COCCC[S+]([O-])c1sc2nc(-c3ccc(N)nc3)cc(C(F)(F)F)c2c1N (stereo not shown) [Example 134] | 2.5 to 10

Second part, the compound after the results:

Row | IC50 [nM] | SMILES
32 | < 2.5 | COCC[S+]([O-])c1sc2nc(-c3cnc(N4CCOCC4)nc3)cc(C(F)(F)F)c2c1N (stereo not shown) [Example 424]
33 | < 2.5 | COCC[S+]([O-])c1sc2nc(-c3cncnc3)cc(-c3ccn(C)n3)c2c1N (stereo not shown) [Example 337]
34 | 2.5 to 10 | Nc1c([S+]([O-])C2CCC2)sc2nc(-c3cnc(NCCO)nc3)nc(-c3ccccc3)c12 (stereo not shown) [Example 431]
35 | < 2.5 | Cn1nccc1-c1cc(-c2cnc3ncn(C)c3c2)nc2sc([S@+]([O-])C3CCC3)c(N)c12 [Example 371]
36 | ≥ 10 | COCC[S+]([O-])c1sc2nc(-c3cnc4nn(C)cc4c3)cc(C(F)(F)F)c2c1NC(C)=O (stereo not shown) [Example 208]
37 | < 2.5 | Nc1c([S+]([O-])C2CCC2)sc2nc(-c3cnc4ncnn4c3)cc(-c3ccccc3)c12 (stereo not shown) [Example 401]
38 | < 2.5 | COCC[S@@+]([O-])c1sc2nc(-c3cnc4nn(C)nc4c3)cc(-c3ccnn3C)c2c1N [Example 381]
39 | < 2.5 | Cn1nccc1-c1cc(-c2cnc3c(c2)CNC3=O)nc2sc([S+]([O-])C3CCC3)c(N)c12 (stereo not shown) [Example 305]
40 | < 2.5 | Nc1c([S+]([O-])C2CCC2)sc2nc(-c3cn[nH]c(=O)c3)cc(C3CCC3)c12 (stereo not shown) [Example 395]
41 | < 2.5 | COCC[S+]([O-])c1sc2nc(-c3ccnnc3)cc(C3CCC3)c2c1N (stereo not shown) [Example 347]
42 | < 2.5 | Nc1c([S@+]([O-])C2CCC2)sc2nc(-c3cc(=O)[nH]cn3)cc(-c3ccccc3)c12 [Example 219]
43 | < 2.5 | Cn1nccc1-c1cc(-c2cnc3nnn(C)c3c2)nc2sc([S+]([O-])C3CCC3)c(N)c12 (stereo not shown) [Example 370]
44 | < 2.5 | Cc1nn(C)cc1-c1cc(-c2cnc(N)nc2)nc2sc([S+]([O-])C3CCC3)c(N)c12 (stereo not shown) [Example 218]
45 | < 2.5 | COCC[S@@+]([O-])c1sc2nc(-c3ccnnc3)cc(-c3ccccc3)c2c1N [Example 211]
46 | < 2.5 | COCC[S+]([O-])c1sc2nc(-c3cnc4nn(C)nc4c3)cc(C3CCC3)c2c1N (stereo not shown) [Example 377]
47 | 2.5 to 10 | Cc1ncc(-c2cc(C3=CCNN3C)c3c(N)c([S+]([O-])C4CCC4)sc3n2)cn1 (stereo not shown) [Example 315]
48 | 2.5 to 10 | Cn1cncc(-c2cc(-c3ccccc3)c3c(N)c([S+]([O-])C4CCC4)sc3n2)c1=O (stereo not shown) [Example 410]
49 | < 2.5 | Cn1nccc1-c1cc(-c2cnc(NCCO)nc2)nc2sc([S+]([O-])C(C)(C)C)c(N)c12 (stereo not shown) [Example 354]
50 | 2.5 to 10 | Nc1ncc(-c2cc(C(F)(F)F)c3c(N)c([S+]([O-])C4CCC4)sc3n2)cn1 (stereo not shown) [Example 429]
51 | < 2.5 | COCCC[S+]([O-])c1sc2nc(-c3cnc4nn(CCO)cc4c3)cc(C3CCC3)c2c1N (stereo not shown) [Example 270]
52 | < 2.5 | Nc1c([S+]([O-])C2CCC2)sc2nc(-c3cncnc3)cc(-c3cnccn3)c12 (stereo not shown) [Example 289]

Row | IC50 [nM] | SMILES
53 | < 2.5 | Cn1cc2cc(-c3cc(-c4ccnn4C)c4c(N)c([S+]([O-])C5CCC5)sc4n3)cnc2n1 (stereo not shown) [Example 333]
54 | < 2.5 | COCCC[S+]([O-])c1sc2nc(-c3cnn(C)c3)cc(C3CC3)c2c1N (stereo not shown) [Example 278]
55 | < 2.5 | COCCC[S+]([O-])c1sc2nc(-c3cnc4c(c3)CNC4=O)cc(-c3ccccc3)c2c1N (stereo not shown) [Example 303]
56 | < 2.5 | COCC[S+]([O-])c1sc2nc(-c3cnc4c(c3)CNC4=O)cc(-c3ccccc3)c2c1N (stereo not shown) [Example 241]
57 | < 2.5 | Cn1nccc1-c1cc(-c2cnc(NCCO)nc2)nc2sc([S@+]([O-])C3CCC3)c(N)c12 [Example 313]
58 | < 2.5 | COCC[S@@+]([O-])c1sc2nc(-c3cnc4nn(C)cc4c3)cc(-c3ccnn3C)c2c1N [Example 335]
59 | < 2.5 | Cn1ccc(-c2cc(-c3cnc(N)nc3)nc3sc([S+]([O-])C4CCC4)c(N)c23)n1 (stereo not shown) [Example 338]
60 | < 2.5 | COCC[S+]([O-])c1sc2nc(-c3ccnnc3)cc(-c3ccccc3)c2c1N (stereo not shown) [Example 210]
61 | < 2.5 | Cn1nccc1-c1cc(-c2cnc(NCCO)nc2)nc2sc([S+]([O-])C3CCC3)c(N)c12 (stereo not shown) [Example 312]
62 | < 2.5 | COCC[S+]([O-])c1sc2nc(-c3cnc4nn(C)cc4c3)cc(-c3ccn(C)n3)c2c1N (stereo not shown) [Example 342]
63 | < 2.5 | COCC[S+]([O-])c1sc2nc(-c3cnc4c(c3)ncn4C)cc(C3CCC3)c2c1N (stereo not shown) [Example 376]
64 | < 2.5 | COCC[S+]([O-])c1sc2nc(-c3cnc4nn(CCO)cc4c3)cc(-c3ccccc3)c2c1N (stereo not shown) [Example 263]
65 | < 2.5 | COCC[S+]([O-])c1sc2nc(-c3cnn(C)c3)cc(C(F)(F)F)c2c1N (stereo not shown) [Example 426]
66 | < 2.5 | COCCn1ccc(-c2cc(-c3cnc4nn(C)cc4c3)nc3sc([S@+]([O-])CCOC)c(N)c23)n1 [Example 387]
67 | < 2.5 | COCC[S+]([O-])c1sc2nc(-c3cnc4ncn(C)c4c3)cc(C3CC3)c2c1N (stereo not shown) [Example 404]
68 | < 2.5 | COCC[S+]([O-])c1sc2nc(-c3cnc4nn(C)cc4c3)cc(C(F)(F)F)c2c1N (stereo not shown) [Example 417]
69 | < 2.5 | COCC[S+]([O-])c1sc2nc(-c3cnc4c(cnn4C)c3)cc(C3CC3)c2c1N (stereo not shown) [Example 226]
70 | < 2.5 | CNc1ncc(-c2cc(-c3ccnn3C)c3c(N)c([S+]([O-])CCOC)sc3n2)cn1 (stereo not shown) [Example 330]
71 | < 2.5 | COCC[S@@+]([O-])c1sc2nc(-c3cnc(N)nc3)cc(C3CCC3)c2c1N [Example 346]
72 | 2.5 to 10 | COCC[S+]([O-])c1sc2nc(-c3cnc(NCCO)nc3)nc(-c3ccccc3)c2c1N (stereo not shown) [Example 432]
73 | < 2.5 | Cn1nccc1-c1cc(-c2cnc3nnn(C)c3c2)nc2sc([S+]([O-])C3CCC3)c(N)c12 (stereo not shown) [Example 369]
